Tested on: Spontaneous Hypertensive rats (SHR)
Test: Rat telemetry, blood pressure and heart rate
Assay type: in vivo
Details: 3 mg/kg enalapril alone, twice daily oral, SHR
From the text: Male Sprague Dawley (Taconic Biosciences) rats, Spontaneous Hypertensive rats (Charles River Laboratories, United States), and Dahl Salt Sensitive rats (Medical College of Wisconsin) were implanted with transmitters (HD S10; Data Science International) for collection of BP and heart rate (HR) data. The transmitters are capable of transmitting a BP signal via a pressure catheter inserted into the abdominal aorta. Initially, a baseline was established and recorded. Each rat was then removed from its recording cage and was dosed by p.o. gavage with vehicle or compound and the animals were then returned to the recording cage. Data sampling for BP and HR was carried out in intervals at selected time points for the duration of the experiment.
All data in this manuscript were presented as mean ± SEM with a significance level of p < 0.05, and n represents the number of individual animals. The significance of differences in concentration-response curves in the ear temperature and, myograft study were calculated using t-test, compare to the vehicle group. The EC50 was calculated using GraphPad Prism 8.3 using a 4-parameter logistic non-linear curve fit model. Single-dose rat telemetry data for normal and SHR rats and repeat-dose telemetry data in Dahls salt-sensitive rats were analyzed by two-way repeated measures ANOVA. Treatment group main effects were compared by Tukey’s HSD method. All telemetry data were analyzed with GraphPad Prism 8.3.

Compound: CCOC(=O)[C@H](CCc1ccccc1)N[C@@H](C)C(=O)N1CCC[C@H]1C(=O)O [enalapril, reference compound]
- heart rate: without affecting the heart rate
- lowering of MAP: 13%

From PMC7506137, “Selective Phosphodiesterase 1 Inhibitor BTTQ Reduces Blood Pressure in Spontaneously Hypertensive and Dahl Salt Sensitive Rats: Role of Peripheral Vasodilation” (Frontiers in Physiology, 2020)
